This is an account of results in publication PMC6526958 (Journal of medicinal chemistry, 2019).

Common to all, as to assay type: biochemical
In experiment [1] the target is T1, recombinant soluble rat CD73 (Rattus norvegicus, UniProt P21588).
T1 sequence (P21588 29-551 limits assumed): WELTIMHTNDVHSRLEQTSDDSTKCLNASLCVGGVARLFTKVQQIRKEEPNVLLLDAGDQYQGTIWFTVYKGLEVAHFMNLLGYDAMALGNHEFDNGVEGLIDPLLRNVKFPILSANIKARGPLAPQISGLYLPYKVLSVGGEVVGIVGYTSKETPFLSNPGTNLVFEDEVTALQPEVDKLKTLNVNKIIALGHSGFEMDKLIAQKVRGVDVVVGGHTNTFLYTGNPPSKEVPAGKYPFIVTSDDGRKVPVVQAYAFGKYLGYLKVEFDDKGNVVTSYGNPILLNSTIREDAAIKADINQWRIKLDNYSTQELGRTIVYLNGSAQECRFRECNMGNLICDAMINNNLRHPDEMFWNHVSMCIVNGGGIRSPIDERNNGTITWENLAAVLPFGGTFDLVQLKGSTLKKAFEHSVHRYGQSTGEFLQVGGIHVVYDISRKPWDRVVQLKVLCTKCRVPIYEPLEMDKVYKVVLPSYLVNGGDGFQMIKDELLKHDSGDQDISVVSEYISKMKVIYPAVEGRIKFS
In words: radiometric CD73 assay with [2,8-3H]AMP, recombinant soluble rat CD73.

Experiment [2] concerns recombinant soluble human CD73. In words: radiometric CD73 assay with [2,8-3H]AMP, recombinant soluble human CD73. The following applies: human versus rat CD73.
The target of experiment [3] is T2, recombinant soluble human CD73 (Homo sapiens, UniProt P21589).
T2 sequence (P21589 28-549): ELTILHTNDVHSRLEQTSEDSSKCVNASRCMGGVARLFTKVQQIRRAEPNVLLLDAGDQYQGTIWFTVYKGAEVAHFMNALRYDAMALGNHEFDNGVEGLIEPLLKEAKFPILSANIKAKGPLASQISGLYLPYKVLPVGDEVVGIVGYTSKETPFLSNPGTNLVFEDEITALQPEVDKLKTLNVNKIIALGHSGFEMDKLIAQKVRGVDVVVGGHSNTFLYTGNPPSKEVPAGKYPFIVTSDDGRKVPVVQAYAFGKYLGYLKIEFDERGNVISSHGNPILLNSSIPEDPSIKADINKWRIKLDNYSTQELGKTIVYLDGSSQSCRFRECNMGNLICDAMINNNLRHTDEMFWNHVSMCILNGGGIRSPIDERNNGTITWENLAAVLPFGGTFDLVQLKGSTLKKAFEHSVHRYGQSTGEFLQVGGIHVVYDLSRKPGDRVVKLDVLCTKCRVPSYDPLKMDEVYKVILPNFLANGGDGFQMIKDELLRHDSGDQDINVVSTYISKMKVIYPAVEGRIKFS
The description is as above.

Experiment [4] deals with T3, membrane-bound CD73 (MDA-MB-231 membrane preparation) (Homo sapiens, UniProt P21589).
T3 sequence (P21589 27-574): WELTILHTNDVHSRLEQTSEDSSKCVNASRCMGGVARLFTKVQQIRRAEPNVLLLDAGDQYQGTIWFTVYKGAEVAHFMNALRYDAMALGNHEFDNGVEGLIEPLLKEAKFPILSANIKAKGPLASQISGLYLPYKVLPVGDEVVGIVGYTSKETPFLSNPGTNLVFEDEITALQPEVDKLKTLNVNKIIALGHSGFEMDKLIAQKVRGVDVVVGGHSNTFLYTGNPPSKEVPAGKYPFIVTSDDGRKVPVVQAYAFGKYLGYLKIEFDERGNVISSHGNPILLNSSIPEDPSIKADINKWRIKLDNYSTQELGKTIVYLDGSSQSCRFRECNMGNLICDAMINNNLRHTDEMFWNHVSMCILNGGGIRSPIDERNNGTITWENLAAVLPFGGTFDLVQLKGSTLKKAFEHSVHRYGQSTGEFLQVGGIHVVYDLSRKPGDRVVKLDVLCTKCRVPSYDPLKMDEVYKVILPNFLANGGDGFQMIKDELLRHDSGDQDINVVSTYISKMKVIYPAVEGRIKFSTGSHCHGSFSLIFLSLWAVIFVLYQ
Nature of the experiment: radiometric CD73 assay, membrane preparations of MDA-MB-231 cells.

The term Ki denotes the dissociation constant of the complex between target and ligand, obtained from inhibition or displacement. As to `O=c1[nH]c(=NOCc2ccc(C(F)(F)F)cc2)ccn1[C@@H]1O[C@H](COP(=O)(O)CP(=O)(O)O)[C@@H](O)[C@H]1O` [9d, N^4-[O-(4-Trifluoromethylbenzyloxy)]-cytidine-5′-O-[(phosphonomethyl)phosphonic acid]], the Ki is 30.3 ± 4.2 nM in experiment [1], 14 ± 1.6 nM in experiment [3] and 10.1 ± 1.4 nM in experiment [4]. Moreover, in experiment [2], the “fold more potent at human CD73 as compared to the rat enzyme” value lay within 2 to 3 fold.
